Key:
[1] = target: T1, TthSHMT (Thermus thermophilus, UniProt Q5SI56); experiment: joint room-temperature X-ray/neutron crystallography, crystal soak; type: binding; settings: pH 5.5, 500 mM; D2O H/D exchange; labelled compound; noncovalent pre-Michaelis complex in peripheral site, protomer A, sulfate in substrate site
T1 construct: gene glyA; recombinant in E. coli BL21(DE3), codon-optimized glyA, N-terminal His6-tag with linker removed by TEV, starts at Ser3; homodimer, active site formed by residues of both protomers

[2] = target: T1, TthSHMT; experiment: joint room-temperature X-ray/neutron crystallography; type: binding; settings: pH 5.5; covalent; Schiff base with Lys226 (internal aldimine)

T1 sequence (Q5SI56 3-407): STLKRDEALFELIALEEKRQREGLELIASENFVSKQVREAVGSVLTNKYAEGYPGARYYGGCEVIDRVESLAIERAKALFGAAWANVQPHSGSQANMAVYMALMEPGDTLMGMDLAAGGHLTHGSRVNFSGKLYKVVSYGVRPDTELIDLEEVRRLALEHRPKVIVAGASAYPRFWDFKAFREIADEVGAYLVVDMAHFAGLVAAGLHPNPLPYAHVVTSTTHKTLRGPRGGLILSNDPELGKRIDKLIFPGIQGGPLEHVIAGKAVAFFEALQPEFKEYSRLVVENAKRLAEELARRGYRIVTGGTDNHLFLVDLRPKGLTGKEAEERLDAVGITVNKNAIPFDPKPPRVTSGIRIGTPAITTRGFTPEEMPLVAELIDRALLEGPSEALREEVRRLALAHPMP

| Structure (SMILES) | joint room-temperature X-ray/neutron crystallography, crystal soak [1] | joint room-temperature X-ray/neutron crystallography [2] |
| --- | --- | --- |
| N[C@@H](CO)C(=O)O [L-Ser-d7] | we observed L-Ser-d7 bound in a pocket on the periphery of the active site |  |
| Cc1ncc(COP(=O)(O)O)c(C=O)c1O [PLP] |  | In TthSHMT, PLP is covalently bound to Lys226 (Lys280 in hSHMT2) through a Schiff base |

From PMC10397204, “Revealing protonation states and tracking substrate in serine hydroxymethyltransferase with room-temperature X-ray and neutron crystallography” (Communications Chemistry, 2023)
